Test results: ChEMBL document CHEMBL1157577

Molecular target: T1, Progesterone receptor (Homo sapiens) (UniProt P06401)
T1 sequence (whole entry): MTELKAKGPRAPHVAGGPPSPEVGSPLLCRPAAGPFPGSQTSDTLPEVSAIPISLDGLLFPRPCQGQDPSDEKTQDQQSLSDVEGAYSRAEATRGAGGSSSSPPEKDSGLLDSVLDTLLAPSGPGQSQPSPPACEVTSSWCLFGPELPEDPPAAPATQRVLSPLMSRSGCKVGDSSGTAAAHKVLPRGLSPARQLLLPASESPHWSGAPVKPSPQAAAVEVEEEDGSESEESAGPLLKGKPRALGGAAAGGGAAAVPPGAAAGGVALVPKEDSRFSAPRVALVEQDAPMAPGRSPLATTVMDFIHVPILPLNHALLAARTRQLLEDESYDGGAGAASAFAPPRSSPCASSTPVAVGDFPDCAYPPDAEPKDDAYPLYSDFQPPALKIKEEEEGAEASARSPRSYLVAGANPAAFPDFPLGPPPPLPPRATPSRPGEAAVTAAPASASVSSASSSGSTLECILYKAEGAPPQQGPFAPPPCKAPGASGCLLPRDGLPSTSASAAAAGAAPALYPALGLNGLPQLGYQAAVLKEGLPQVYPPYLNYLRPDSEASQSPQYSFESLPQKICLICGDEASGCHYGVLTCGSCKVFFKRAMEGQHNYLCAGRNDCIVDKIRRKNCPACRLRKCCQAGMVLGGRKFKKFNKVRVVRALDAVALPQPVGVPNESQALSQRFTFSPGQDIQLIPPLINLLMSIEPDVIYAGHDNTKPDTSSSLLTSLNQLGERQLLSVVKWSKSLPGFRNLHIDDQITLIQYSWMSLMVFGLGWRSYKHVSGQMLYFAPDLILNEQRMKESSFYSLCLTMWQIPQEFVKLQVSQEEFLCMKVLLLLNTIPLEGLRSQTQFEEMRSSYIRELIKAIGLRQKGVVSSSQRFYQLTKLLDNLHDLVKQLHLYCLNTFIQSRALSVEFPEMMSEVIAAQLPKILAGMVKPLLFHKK
Assay: Antiprogestagenic activity at progesterone receptor in human T47D cells assessed as inhibition of progesterone-induced alkaline phosphatase activity relative to mifepristone
Type: cell-based
Design: scale not given: the % may be the effect or the level left

Activity [%] | SMILES
0.11 | CC#C[C@]1(O)CC[C@H]2[C@@H]3CCC4=CC(=O)CCC4=C3[C@@H](c3ccc(N(C)CCCCCC(=O)O)cc3)C[C@@]21C
0.15 | CC#C[C@]1(O)CC[C@H]2[C@@H]3CCC4=CC(=O)CCC4=C3[C@@H](c3ccc(N(C)CCC(=O)O)cc3)C[C@@]21C
